# Assay results from patent US10676467B2 (Washington University, priority 2017, dated 2020).
# “And” between values parts separate entries of the source, which are not always exact repeats. Identical values can stand only once. “Also recorded” adds a separate entry of the source.
# How the values were obtained:
# [1] = 5 min p.i., literature value; cited from earlier work
# [2] = Ex vivo biodistribution in female Lewis rats; parameters: species or system rat; conditions: for Tissue uptake, Blood / Tissue uptake, Bone / Tissue uptake, Brain / Tissue uptake, Fat / Tissue uptake, Heart / Tissue uptake, Kidney / Tissue uptake, Liver / Tissue uptake, Lung / Tissue uptake, Muscle / Tissue uptake, Pancreas / Tissue uptake, Spleen / Tissue uptake, Thymus: n = 4
# Excerpt: Organs of blood, heart, lung, muscle, fat, pancreas, spleen, kidney, liver, thymus, brain, and bone were dissected and collected for counting. All the samples were counted with a dilution of the injectate on an automated well counter (Beckman Gamma 8000 well counter). Tissues were weighed and the uptake was reported as background and decay-corrected percent injected dose per gram (% ID/g).
# The whole brains were quickly harvested and dissected into regions of cerebellum, brain stem, cortex, striatum, thalamus, and hippocampus, the remainder of the brain was also collected to determine the total brain uptake. Organs of blood, heart, lung, muscle, fat, pancreas, spleen, kidney, liver, thymus, and bone were also dissected and collected for counting. All the samples were counted with a dilution of the injectate on an automated well counter (Beckman Gamma 8000 well counter). Tissues were weighed and the uptake was reported as background and decay-corrected percent injected dose per gram (% ID/g).
# [3] = biological target: T1, S1P1 (Rattus norvegicus (Rat), UniProt P48303); assay: MicroPET and tracer kinetic modeling in EAE rat model, lumbar spinal cord; format: in vivo; conditions: for 2TCM Vd / LoganAIF Vd: lumbar spinal cord, n = 3-4
# Procedure: MicroPET scans were performed using an Inveon PET/CT system (Siemens Inc., Knoxville, Tenn.). […] Each rat was secured to a custom-designed acrylic bed equipped with a nosecone for gas anesthesia. PET/CT scans were conducted under 1.5-2% isoflurane anesthesia with the rat placed in transaxial position and centered with the T13 vertebral spine in the field of view. […] A list mode protocol was used with 60-min dynamic data acquisition.
# PET image data was processed using filter back projection algorithm with attenuation and scatter corrections. The data were reconstructed per time frame employing an iterative reconstructional algorithm (three-dimensional ordered subset expectation maximization (3D-OSEM), maximum a posteriori (MAP)) and corrected for decay, random coincidences, scatter, and attenuation. […] Image data was analyzed using Inveon Research Workstation software IRW 4.2 (Siemens Inc., Knoxville, Tenn.). The regions of interest (ROI), the lumbar spinal cord and bilateral common carotid arteries, were drawn over the co-registered PET/CT images using the standard protocol published previously. Time-activity curves (TACs) were obtained and were expressed as % ID/g. A two-tailed t-test was used for the comparison of the tracer uptake in EAE rat lumbar spinal cord versus sham. A P value less than 0.05 was considered statistically significant. Time-activity curves were further analyzed using 2-tissue-compartment model (2TCM), as well as Logan graphical analysis, using the ROI over bilateral common carotid arteries for image-based arterial blood input function.
# [4] = Nonhuman primate (NHP) brain microPET scan; format: in vivo, macaques; conditions: normal NHP
# Procedure: To examine if newly-synthesized S1P1 radioligands could cross the BBB of NHPs, two male macaques (9-10 kg) were studied with a microPET Focus 220 scanner (Concorde/CTI/Siemens Microsystems, Knoxville, Tenn.). The welfare of the animals conformed to the requirements of National Institutes of Health (NIH). This work was conducted at the Nonhuman Primate Facility of Washington University in St. Louis with approval from the IACUC. Animals were maintained in facilities with 12-hour dark and light cycles, given access to food and water ad libitum and provided a variety of psychologically enriching tasks to prevent inappropriate deprivation. Animals were scanned under anesthesia (induced with ketamine and glycopyrrolate and maintained with inhalation isoflurane). Core temperature was kept about 37° C. with a heated water blanket. The head was secured in a head holder with the brain in the center of the field of view.
# PET scans were collected from O-120 min with the following time frames: 3×1 min, 4×2 min, 3×3 min and 20×5 min. Emission data were corrected for dead time, scatter and attenuation and then reconstructed to a final resolution of 2.0 mm full-width half maximum in all 3 dimensions at the center of the field of view. PET and MRI images were co-registered using automated image registration program (AIR). For quantitative analyses, three-dimensional ROI (the global brain) was identified on the MRI and transformed to the reconstructed PET images to obtain time-activity curves. Activity measures were standardized to body weight and the dose of radioactivity injected to yield standardized uptake value (SUV).
# [5] = biological target: T1, S1P1; assay: In vitro autoradiography of [18F]12a in rat brain slices, SEW2871 blocking; format: binding; conditions: rat brain sections, ~6 nM tracer, 10 μM SEW2871, 60 min RT
# Procedure: Adult female Lewis rats (n=2, 100-125 g, Charles River) were used to perform the autoradiography study. The rats (n=2) was euthanized and the brains were collected and cut into 20 μm sequential sections using a Microm cryotome and mounted on glass slides. […] Following the incubation, the brain sections were washed and exposed to the Storage Phosphor Screen in an imaging cassette overnight in −20° C. at dark for 12 h. The distribution of radioactivity was visualized by a Fuji Bio-Imaging Analyzer FLA-7000 (Fuji Photo Film, Tokyo, Japan). Photo-stimulated luminescence (PSL) from the brain slices was quantified using Multi Gauge v3.0 software (Fuji Photo Film Co., Tokyo, Japan). Data were background-corrected, and expressed as photo-stimulated luminescence signals per square millimeter (PSL/mm^2).
# T1 sequence (P48303 whole entry): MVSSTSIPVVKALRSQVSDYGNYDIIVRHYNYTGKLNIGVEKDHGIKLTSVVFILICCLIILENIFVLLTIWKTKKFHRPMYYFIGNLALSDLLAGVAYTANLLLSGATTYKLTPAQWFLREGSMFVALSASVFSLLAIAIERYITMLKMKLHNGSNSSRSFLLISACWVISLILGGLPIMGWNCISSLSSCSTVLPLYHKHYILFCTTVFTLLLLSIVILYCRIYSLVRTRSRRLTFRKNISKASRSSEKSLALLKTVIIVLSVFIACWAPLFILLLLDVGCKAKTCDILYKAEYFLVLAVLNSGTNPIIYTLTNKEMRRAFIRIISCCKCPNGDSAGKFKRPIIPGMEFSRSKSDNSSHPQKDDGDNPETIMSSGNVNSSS
smiles,measurement,setting,value
O=C(O)C1CN(Cc2ccc(-c3noc(-c4ccc(OCC[18F])c(C(F)(F)F)c4)n3)cc2)C1 [[^18F]4],Brain uptake of previous radiotracer,[1],0.49 % ID/g
OCCOCc1ccc(-c2noc(-c3ccc(OCC[18F])c(C(F)(F)F)c3)n2)cc1 [[^18F]12a],"Tissue uptake, Blood",[2]; 5 min p.i.,0.36 % ID/g and 0.36 ± 0.04 % ID/g
same,"Tissue uptake, Blood",[2]; 30 min p.i.,0.51 ± 0.01 % ID/g
same,"Tissue uptake, Blood",[2]; 60 min p.i.,0.57 ± 0.03 % ID/g
same,"Tissue uptake, Blood",[2]; 120 min p.i.,0.66 ± 0.04 % ID/g
same,"Tissue uptake, Bone",[2]; 5 min p.i.,0.40 ± 0.04 % ID/g
same,"Tissue uptake, Bone",[2]; 30 min p.i.,0.34 ± 0.02 % ID/g
same,"Tissue uptake, Bone",[2]; 60 min p.i.,0.34 ± 0.01 % ID/g
same,"Tissue uptake, Bone",[2]; 120 min p.i.,0.42 ± 0.02 % ID/g
same,"Tissue uptake, Brain",[2]; 5 min p.i.,1.31 % ID/g and 1.31 ± 0.06 % ID/g
same,"Tissue uptake, Brain",[2]; 30 min p.i.,1.34 ± 0.08 % ID/g
same,"Tissue uptake, Brain",[2]; 60 min p.i.,1.13 ± 0.05 % ID/g
same,"Tissue uptake, Brain",[2]; 120 min p.i.,0.87 ± 0.04 % ID/g
same,"Tissue uptake, Fat",[2]; 5 min p.i.,0.24 % ID/g and 0.24 ± 0.03 % ID/g
same,"Tissue uptake, Fat",[2]; 30 min p.i.,1.63 ± 0.36 % ID/g
same,"Tissue uptake, Fat",[2]; 60 min p.i.,1.50 ± 0.08 % ID/g
same,"Tissue uptake, Fat",[2]; 120 min p.i.,1.91 ± 0.19 % ID/g
same,"Tissue uptake, Heart",[2]; 5 min p.i.,1.16 % ID/g and 1.16 ± 0.01 % ID/g
same,"Tissue uptake, Heart",[2]; 30 min p.i.,1.01 ± 0.08 % ID/g
same,"Tissue uptake, Heart",[2]; 60 min p.i.,0.85 ± 0.04 % ID/g
same,"Tissue uptake, Heart",[2]; 120 min p.i.,0.74 ± 0.03 % ID/g
same,"Tissue uptake, Kidney",[2]; 5 min p.i.,2.14 % ID/g and 2.14 ± 0.14 % ID/g
same,"Tissue uptake, Kidney",[2]; 30 min p.i.,1.43 % ID/g and 1.43 ± 0.08 % ID/g
same,"Tissue uptake, Kidney",[2]; 60 min p.i.,1.18 ± 0.04 % ID/g
same,"Tissue uptake, Kidney",[2]; 120 min p.i.,1.01 ± 0.04 % ID/g
same,"Tissue uptake, Liver",[2]; 5 min p.i.,4.87 % ID/g and 4.87 ± 0.27 % ID/g
same,"Tissue uptake, Liver",[2]; 30 min p.i.,3.58 % ID/g and 3.58 ± 0.28 % ID/g
same,"Tissue uptake, Liver",[2]; 60 min p.i.,3.32 ± 0.33 % ID/g
same,"Tissue uptake, Liver",[2]; 120 min p.i.,3.23 ± 0.10 % ID/g
same,"Tissue uptake, Lung",[2]; 5 min p.i.,1.31 % ID/g and 1.31 ± 0.01 % ID/g
same,"Tissue uptake, Lung",[2]; 30 min p.i.,1.20 ± 0.06 % ID/g
same,"Tissue uptake, Lung",[2]; 60 min p.i.,1.01 ± 0.04 % ID/g
same,"Tissue uptake, Lung",[2]; 120 min p.i.,0.87 ± 0.02 % ID/g
same,"Tissue uptake, Muscle",[2]; 5 min p.i.,0.28 % ID/g and 0.28 ± 0.02 % ID/g
same,"Tissue uptake, Muscle",[2]; 30 min p.i.,0.54 ± 0.01 % ID/g
same,"Tissue uptake, Muscle",[2]; 60 min p.i.,0.49 ± 0.03 % ID/g
same,"Tissue uptake, Muscle",[2]; 120 min p.i.,0.42 ± 0.01 % ID/g
same,"Tissue uptake, Pancreas",[2]; 5 min p.i.,2.19 % ID/g and 2.19 ± 0.04 % ID/g
same,"Tissue uptake, Pancreas",[2]; 30 min p.i.,1.52 % ID/g and 1.52 ± 0.04 % ID/g
same,"Tissue uptake, Pancreas",[2]; 60 min p.i.,1.21 ± 0.10 % ID/g
same,"Tissue uptake, Pancreas",[2]; 120 min p.i.,0.98 ± 0.05 % ID/g
same,"Tissue uptake, Spleen",[2]; 5 min p.i.,1.14 % ID/g and 1.14 ± 0.10 % ID/g
same,"Tissue uptake, Spleen",[2]; 30 min p.i.,0.79 % ID/g and 0.79 ± 0.06 % ID/g
same,"Tissue uptake, Spleen",[2]; 60 min p.i.,0.65 ± 0.02 % ID/g
same,"Tissue uptake, Spleen",[2]; 120 min p.i.,0.55 ± 0.03 % ID/g
same,"Tissue uptake, Thymus",[2]; 5 min p.i.,0.79 % ID/g and 0.79 ± 0.12 % ID/g
same,"Tissue uptake, Thymus",[2]; 30 min p.i.,0.68 ± 0.06 % ID/g
same,"Tissue uptake, Thymus",[2]; 60 min p.i.,0.58 ± 0.04 % ID/g
same,"Tissue uptake, Thymus",[2]; 120 min p.i.,0.51 ± 0.05 % ID/g
same,Defluorination in vivo (bone uptake 5 to 120 min),[2]; bone radioactivity unchanged,no metabolic defluorination in vivo
same,Visualization of rat lumbar spinal cord by microPET,[3]; EAE and sham rats,clear visualization of lumbar spinal cord
same,2TCM Vd,[3]; EAE rats,2.18 ± 0.20 mL/g
same,LoganAIF Vd,[3]; EAE rats,2.18 ± 0.20 mL/g
same,"Tracer uptake in lumbar spinal cord, EAE","[3]; EAE rats, summed SUV values 10-60 min post injection, n=3-4",1.42±0.14 SUV
same,2TCM Vd,[3]; Sham rats,1.80 ± 0.20 mL/g
same,LoganAIF Vd,[3]; Sham rats,1.77 ± 0.24 mL/g
same,Increase of tracer uptake in EAE rat lumbar spinal cord compared with shams,"[3]; microPET, 10-60 min post injection",29.5%
same,Averaged tracer uptake in sham rat spinal cord,"[3]; sham rats, 10-60 min post injection",1.0-1.1
same,"Tracer uptake in lumbar spinal cord, sham","[3]; sham rats, summed SUV values 10-60 min post injection, n=3-4",1.10±0.06 SUV
same,Max SUV value in total brain,[4]; microPET,~2.9 SUV
same,"Blood-brain barrier crossing, NHP brain","[4]; microPET, listed as 18F-TZ4877",able to cross the blood brain barrier; also recorded: able to cross the BBB
same,Time to max SUV in total brain,[4]; post injection,~5 min
same,Reduction of radioactivity by SEW2871 blocking,[5],~30%
